Data from EPA's ToxRefDB 2.

Experiments:
rat [1] = settings: Prenatal developmental toxicity study, sprague dawley, Oral, Gavage/Intubation, dose end: 17 GD
rat [2] = settings: Prenatal developmental toxicity study, sprague dawley, Oral, Gavage/Intubation, dose end: 17 GD; remark: listed apart in the source
dog [3] = settings: Sub-acute repeat dose toxicity; beagle; Oral; Gavage/Intubation; dose end: 1 month; group: systemic; systemic / clinical chemistry / cholesterol / cholesterol + systemic / in life observation / body weight / body weight + systemic / in life …
rabbit [4] = settings: Prenatal developmental toxicity study, new zealand white, Oral, Gavage/Intubation, dose end: 19 GD, group: maternal
rat [5] = settings: Sub-acute repeat dose toxicity, sprague dawley, Oral, Gavage/Intubation, dose end: 28 day
rabbit [6] = settings: Prenatal developmental toxicity study; new zealand white; Oral; Gavage/Intubation; dose end: 19 GD; group: maternal; systemic / in life observation / body weight / body weight gain + systemic / in life observation / clinical signs / alopecia + systemic / in…
dog [7] = settings: Chronic toxicity; beagle; Oral; Gavage/Intubation; dose end: 6 month; group: systemic; systemic / in life observation / body weight / body weight + systemic / in life observation / clinical signs / pulse/pressure + systemic / …
rat [8] = settings: Fertility (Segment I), sprague dawley, Oral, Gavage/Intubation, dose end: 7 GD
rat [9] = settings: Fertility (Segment I), sprague dawley, Oral, Gavage/Intubation, dose end: 7 GD; remark: listed apart in the source
rat [10] = settings: Fertility (Segment I), sprague dawley, Oral, Gavage/Intubation, dose end: 56 day
rat [11] = settings: Chronic toxicity, sprague dawley, Oral, Gavage/Intubation, dose end: 6 month, group: systemic
dog [12] = settings: Chronic toxicity; beagle; Oral; Capsule; dose end: 12 month; group: systemic; systemic / in life observation / body weight / body weight + systemic / in life observation / clinical signs / emaciation + systemic / in …
rat [13] = settings: Prenatal developmental toxicity study, sprague dawley, Oral, Gavage/Intubation, dose end: 15 GD
rat [14] = settings: Multigenerational reproductive toxicity study, sprague dawley, Oral, Feed, dose end: 2 generation
mouse [15] = settings: Carcinogenicity; cd1; Oral; Feed; dose end: 78 week; group: systemic; systemic / in life observation / body weight / body weight + systemic / in life observation / body weight / body weight gain
hamster = settings: Subchronic oral toxicity in rodents, golden syrian, Feed, dose end: 90 day, group: systemic
rat [16] = settings: Combined chronic toxicity/carcinogenicity; sprague dawley; Oral; Feed; dose end: 2 year; group: systemic; systemic / clinical chemistry / cholesterol / cholesterol + systemic / in life observation / body weight / body weight + systemic / in life …
rat [17] = settings: Subchronic oral toxicity in rodents, sprague-dawley, Feed, dose end: 90 day, group: systemic, systemic / organ weight / liver / absolute + systemic / organ weight / liver / relative to body weight + systemic / pathology microscopic / …
rat [18] = settings: Neurotoxicity screening battery; other; Oral; Feed; dose end: 11 month; group: cannot be grouped; systemic / in life observation / body weight / body weight
dog [19] = settings: Chronic toxicity; beagle; Oral; Feed; dose end: 24 month; group: cholinesterase; cholinesterase / cholinesterase / cholinesterase / plasma cholinesterase (che)
mouse [20] = settings: Carcinogenicity; cd1; Oral; Feed; dose end: 104 week; group: cholinesterase; cholinesterase / cholinesterase / cholinesterase / cholinesterase (che)
rat [21] = settings: Prenatal developmental toxicity study, other, Oral, Gavage/Intubation, dose end: 15 GD
dog [22] = settings: Chronic toxicity, beagle, Oral, Feed, dose end: 52 week, group: cholinesterase
rabbit [23] = settings: Prenatal developmental toxicity study, Oral, Gavage/Intubation, dose end: 18 GD
[24] = group: developmental, developmental / developmental malformation / bone / incomplete ossification + systemic / in life observation / body weight / fetal weight
[25] = group: maternal, systemic / in life observation / body weight / body weight + systemic / in life observation / body weight / body weight gain + systemic / in…
[26] = group: developmental, systemic / in life observation / body weight / fetal weight
[27] = systemic / in life observation / body weight / body weight gain + systemic / in life observation / food consumption / food consumption
[28] = systemic / in life observation / body weight / body weight gain + systemic / in life observation / food consumption / food consumption + …
[29] = group: maternal, reproductive / reproductive performance / estrous cycle / abnormal
[30] = group: systemic, systemic / in life observation / clinical signs / excessive or spontaneous vocalization + systemic / organ weight / salivary glands / …
[31] = group: maternal, reproductive / offspring survival early / litter viability other / total litter loss + reproductive / reproductive performance / …
[32] = group: parental, systemic / in life observation / body weight / body weight gain + systemic / in life observation / clinical signs / abnormal motor movement…
[33] = group: parental, systemic / in life observation / clinical signs / [other] + systemic / in life observation / body weight / body weight gain + systemic / in …
[34] = group: maternal, reproductive / reproductive performance / estrous cycle / corpora lutea + reproductive / reproductive performance / implantations / …
[35] = group: parental, systemic / in life observation / body weight / body weight gain + systemic / in life observation / clinical signs / [other] + systemic / in …
[36] = systemic / clinical chemistry / alanine aminotransferase (alt/sgpt) / alanine aminotransferase (alt/sgpt) + systemic / clinical chemistry / …
[37] = systemic / in life observation / clinical signs / [other] + systemic / organ weight / uterus / absolute + systemic / organ weight / uterus…
[38] = group: maternal, systemic / in life observation / body weight / body weight gain + systemic / in life observation / clinical signs / ataxia + systemic / in …
[39] = group: offspring, systemic / in life observation / body weight / offspring (pup) weight
[40] = group: parental, systemic / pathology gross / kidney / discolored + systemic / pathology microscopic / kidney / casts granular + systemic / pathology …
[41] = systemic / in life observation / body weight / body weight + systemic / in life observation / food consumption / food consumption
[42] = systemic / in life observation / body weight / body weight + systemic / in life observation / food consumption / food consumption + systemic…
[43] = group: developmental, developmental / developmental malformation / bone / delayed ossification
[44] = group: maternal, systemic / in life observation / clinical signs / hyperactivity
[45] = cholinesterase / cholinesterase / cholinesterase / plasma cholinesterase (che)
[46] = cholinesterase / cholinesterase / cholinesterase / plasma cholinesterase (che) + cholinesterase / cholinesterase / cholinesterase / brain …
[47] = group: developmental, developmental / developmental malformation / bone / fused
[48] = group: maternal, systemic / in life observation / body weight / body weight gain + systemic / urinalysis / appearance and color / appearance and color
[49] = group: maternal, systemic / in life observation / body weight / body weight gain + systemic / urinalysis / appearance and color / appearance and color + …

FC(F)(F)c1cccc(C2=CCN(CCc3ccc4ccncc4c3)CC2)c1
LEL (rat [1]; [24]): 7.5 mg/kg/day
LOAEL (rat [1]; [24]): 7.5 mg/kg/day
NEL (rat [1]; [24]): 2.5 mg/kg/day
NOAEL (rat [1]; [24]): 2.5 mg/kg/day
LEL (rat [1]; [25]): 0.75 mg/kg/day
LOAEL (rat [1]; [25]): > 7.5 mg/kg/day
NEL (rat [1]; [25]): < 0.75 mg/kg/day
NOAEL (rat [1]; [25]): ≥ 7.5 mg/kg/day
LEL (rat [2]; [26]): 7.5 mg/kg/day
LOAEL (rat [2]; [26]): 7.5 mg/kg/day
NEL (rat [2]; [26]): 2.5 mg/kg/day
NOAEL (rat [2]; [26]): 2.5 mg/kg/day
LEL (rat [2]; [25]): 0.75 mg/kg/day
LOAEL (rat [2]; [25]): > 7.5 mg/kg/day
NEL (rat [2]; [25]): < 0.75 mg/kg/day
NOAEL (rat [2]; [25]): ≥ 7.5 mg/kg/day
LEL (dog [3]): 0.01 mg/kg/day
LOAEL (dog [3]): 0.01 mg/kg/day
NEL (dog [3]): < 0.01 mg/kg/day
NOAEL (dog [3]): < 0.01 mg/kg/day
LEL (rabbit [4]; [27]): 0.01 mg/kg/day
NEL (rabbit [4]; [27]): < 0.01 mg/kg/day
LOAEL (rabbit [4]; [28]): > 0.05 mg/kg/day
NOAEL (rabbit [4]; [28]): ≥ 0.05 mg/kg/day
LEL (rat [5]; [29]): 1 mg/kg/day
LOAEL (rat [5]; [29]): > 7.5 mg/kg/day
NEL (rat [5]; [29]): 0.1 mg/kg/day
NOAEL (rat [5]; [29]): ≥ 7.5 mg/kg/day
LEL (rat [5]; [30]): 0.1 mg/kg/day
LOAEL (rat [5]; [30]): 0.1 mg/kg/day
NEL (rat [5]; [30]): < 0.1 mg/kg/day
NOAEL (rat [5]; [30]): < 0.1 mg/kg/day
LEL (rabbit [6]): 0.01 mg/kg/day
LOAEL (rabbit [6]): > 0.05 mg/kg/day
NEL (rabbit [6]): < 0.01 mg/kg/day
NOAEL (rabbit [6]): ≥ 0.05 mg/kg/day
LEL (dog [7]): 0.01 mg/kg/day
LOAEL (dog [7]): > 0.25 mg/kg/day
NEL (dog [7]): < 0.01 mg/kg/day
NOAEL (dog [7]): ≥ 0.25 mg/kg/day
LOAEL (rat [8]; [31]): > 7.5 mg/kg/day
NOAEL (rat [8]; [31]): ≥ 7.5 mg/kg/day
LEL (rat [8]; [29]): 0.1 mg/kg/day
NEL (rat [8]; [29]): < 0.1 mg/kg/day
LEL (rat [8]; group: parental, systemic / in life observation / body weight / body weight gain): 1 mg/kg/day
LOAEL (rat [8]; [32]): > 7.5 mg/kg/day
NEL (rat [8]; [32]): 0.1 mg/kg/day
NOAEL (rat [8]; [32]): ≥ 7.5 mg/kg/day
LEL (rat [9]; [29]): 0.1 mg/kg/day
LOAEL (rat [9]; [29]): 0.1 mg/kg/day
NEL (rat [9]; [29]): < 0.1 mg/kg/day
NOAEL (rat [9]; [29]): < 0.1 mg/kg/day
LEL (rat [9]; [33]): 0.1 mg/kg/day
LOAEL (rat [9]; [33]): 0.1 mg/kg/day
NEL (rat [9]; [33]): < 0.1 mg/kg/day
NOAEL (rat [9]; [33]): < 0.1 mg/kg/day
LEL (rat [10]; [34]): 7.5 mg/kg/day
LOAEL (rat [10]; [34]): > 7.5 mg/kg/day
NEL (rat [10]; [34]): 1 mg/kg/day
NOAEL (rat [10]; [34]): ≥ 7.5 mg/kg/day
LEL (rat [10]; [35]): 0.1 mg/kg/day
LOAEL (rat [10]; [35]): 0.1 mg/kg/day
NEL (rat [10]; [35]): < 0.1 mg/kg/day
NOAEL (rat [10]; [35]): < 0.1 mg/kg/day
LOAEL (rat [11]; [36]): > 7.5 mg/kg/day
NOAEL (rat [11]; [36]): ≥ 7.5 mg/kg/day
LEL (rat [11]; [37]): 0.1 mg/kg/day
NEL (rat [11]; [37]): < 0.1 mg/kg/day

CCN(CC)C(=O)c1cccc(C)c1 [DEET]
LEL (dog [12]): 400 mg/kg/day
LOAEL (dog [12]): 400 mg/kg/day
NEL (dog [12]): 100 mg/kg/day
NOAEL (dog [12]): 100 mg/kg/day
LEL (rat [13]; [26]): 750 mg/kg/day
LOAEL (rat [13]; [26]): 750 mg/kg/day
NEL (rat [13]; [26]): 250 mg/kg/day
NOAEL (rat [13]; [26]): 250 mg/kg/day
LEL (rat [13]; [38]): 750 mg/kg/day
LOAEL (rat [13]; [38]): 750 mg/kg/day
NEL (rat [13]; [38]): 250 mg/kg/day
NOAEL (rat [13]; [38]): 250 mg/kg/day
LEL (rat [14]; [39]): 250 mg/kg/day
LOAEL (rat [14]; [39]): > 250 mg/kg/day
NEL (rat [14]; [39]): 100 mg/kg/day
NOAEL (rat [14]; [39]): ≥ 250 mg/kg/day
LEL (rat [14]; [40]): 25 mg/kg/day
LOAEL (rat [14]; [40]): 25 mg/kg/day
NEL (rat [14]; [40]): < 25 mg/kg/day
NOAEL (rat [14]; [40]): < 25 mg/kg/day
LEL (mouse [15]): 1000 mg/kg/day
LOAEL (mouse [15]): 1000 mg/kg/day
NEL (mouse [15]): 500 mg/kg/day
NOAEL (mouse [15]): 500 mg/kg/day
LEL (hamster; [41]): 304 mg/kg/day
LOAEL (hamster; [41]): 304 mg/kg/day
NEL (hamster; [42]): 61 mg/kg/day
NOAEL (hamster; [42]): 61 mg/kg/day
LEL (rat [16]): 400 mg/kg/day
LOAEL (rat [16]): 400 mg/kg/day
NEL (rat [16]): 100 mg/kg/day
NOAEL (rat [16]): 100 mg/kg/day
LEL (rat [17]): 100 mg/kg/day
LOAEL (rat [17]): 100 mg/kg/day
NEL (rat [17]): < 100 mg/kg/day
NOAEL (rat [17]): < 100 mg/kg/day
LEL (rat [18]): 250 mg/kg/day
LOAEL (rat [18]): > 250 mg/kg/day
NEL (rat [18]): 100 mg/kg/day
NOAEL (rat [18]): ≥ 250 mg/kg/day

CCOP(=S)(OCC)SCSP(=S)(OCC)OCC [Ethion]
LEL (dog [19]): 0.403 mg/kg/day
LOAEL (dog [19]): 0.403 mg/kg/day
NEL (dog [19]): 0.123 mg/kg/day
NOAEL (dog [19]): 0.123 mg/kg/day
LEL (mouse [20]): 1.2 mg/kg/day
LOAEL (mouse [20]): > 1.2 mg/kg/day
NEL (mouse [20]): 0.22 mg/kg/day
NOAEL (mouse [20]): ≥ 1.2 mg/kg/day
LEL (rat [21]; [43]): 2.5 mg/kg/day
LOAEL (rat [21]; [43]): 2.5 mg/kg/day
NEL (rat [21]; [43]): 0.6 mg/kg/day
NOAEL (rat [21]; [43]): 0.6 mg/kg/day
LEL (rat [21]; [44]): 2.5 mg/kg/day
LOAEL (rat [21]; [44]): 2.5 mg/kg/day
NEL (rat [21]; [44]): 0.6 mg/kg/day
NOAEL (rat [21]; [44]): 0.6 mg/kg/day
LEL (dog [22]; [45]): 0.049 mg/kg/day
LOAEL (dog [22]; [45]): 0.049 mg/kg/day
NEL (dog [22]; [46]): 0.026 mg/kg/day
NOAEL (dog [22]; [46]): 0.026 mg/kg/day
LEL (rabbit [23]; [47]): 9.6 mg/kg/day
LOAEL (rabbit [23]; [47]): 9.6 mg/kg/day
NEL (rabbit [23]; [47]): 2.4 mg/kg/day
NOAEL (rabbit [23]; [47]): 2.4 mg/kg/day
LEL (rabbit [23]; [48]): 2.4 mg/kg/day
LOAEL (rabbit [23]; [48]): 2.4 mg/kg/day
NEL (rabbit [23]; [49]): 0.6 mg/kg/day
NOAEL (rabbit [23]; [49]): 0.6 mg/kg/day
